Where “and” joins values, the source holds several entries; their conditions need not be identical. Equal values may be shown once.
Columns and labels:
Assay in all cases: KINOMEscan competition binding
Conditions in all cases: compound 10.0 µM
[1] = target: CRK2 (P.falciparum) (UniProt P61075)
[2] = target: RPS6KA6 KD2 (human) (UniProt Q9UK32)
[3] = target: PLK2 (human) (UniProt Q9NYY3)
[4] = target: CHEK2 (human) (UniProt O96017)
[5] = target: TLK2 (human) (UniProt Q86UE8)
[6] = target: FGFR4 (human) (UniProt P22455)
[7] = target: ERBB4 (human) (UniProt Q15303)
[8] = target: DCLK3 (human) (UniProt Q9C098)
[9] = target: CDC42BPB (human) (UniProt Q9Y5S2)
[10] = target: MAPK1 (human) (UniProt P28482)
[11] = target: MELK (human) (UniProt Q14680)
[12] = target: SBK1 (human) (UniProt Q52WX2)
[13] = target: TYK2 JH1 catalytic (human) (UniProt P29597)
[14] = target: LYN (human) (UniProt P07948)
[15] = target: GRK4 (human) (UniProt P32298)
[16] = target: PTK2B (human) (UniProt Q14289)
[17] = target: RPS6KA4 KD1 (human) (UniProt O75676)
[18] = target: STK35 (human) (UniProt Q8TDR2)
[19] = target: MAPK6 (human) (UniProt Q16659)
[20] = target: MAP3K10 (human) (UniProt Q02779)
[21] = target: ERN1 (human) (UniProt O75460)
[22] = target: JAK1 JH2 pseudokinase (human) (UniProt P23458)
[23] = target: PAK3 (human) (UniProt O75914)
[24] = target: MYLK (human) (UniProt Q15746)
[25] = target: CDK4 CCND1 (human) (UniProt P11802+P24385)
[26] = target: ALK (human) (UniProt Q9UM73)
[27] = target: STK17B (human) (UniProt O94768)
[28] = target: MLTK (human) (UniProt Q9NYL2)
[29] = target: MAP4K3 (human) (UniProt Q8IVH8)
[30] = target: STK38 (human) (UniProt Q15208)
[31] = target: PRKD3 (human) (UniProt O94806)
[32] = target: BMPR2 (human) (UniProt Q13873)
[33] = target: RPS6KA3 KD1 (human) (UniProt P51812)
[34] = target: FLT3 (human) (UniProt P36888)
[35] = target: RIPK1 (human) (UniProt Q13546)
[36] = target: ERBB3 (human) (UniProt P21860)
[37] = target: EPHA3 (human) (UniProt P29320)
[38] = target: CLK1 (human) (UniProt P49759)
[39] = tested on: PIK3CA (human), P42336 [H1047L]
[40] = tested on: PIK3CA (human), P42336 [E542K]
Sequence of PIK3CA (human), P42336 [E542K] (P42336 whole entry E542K, looked up): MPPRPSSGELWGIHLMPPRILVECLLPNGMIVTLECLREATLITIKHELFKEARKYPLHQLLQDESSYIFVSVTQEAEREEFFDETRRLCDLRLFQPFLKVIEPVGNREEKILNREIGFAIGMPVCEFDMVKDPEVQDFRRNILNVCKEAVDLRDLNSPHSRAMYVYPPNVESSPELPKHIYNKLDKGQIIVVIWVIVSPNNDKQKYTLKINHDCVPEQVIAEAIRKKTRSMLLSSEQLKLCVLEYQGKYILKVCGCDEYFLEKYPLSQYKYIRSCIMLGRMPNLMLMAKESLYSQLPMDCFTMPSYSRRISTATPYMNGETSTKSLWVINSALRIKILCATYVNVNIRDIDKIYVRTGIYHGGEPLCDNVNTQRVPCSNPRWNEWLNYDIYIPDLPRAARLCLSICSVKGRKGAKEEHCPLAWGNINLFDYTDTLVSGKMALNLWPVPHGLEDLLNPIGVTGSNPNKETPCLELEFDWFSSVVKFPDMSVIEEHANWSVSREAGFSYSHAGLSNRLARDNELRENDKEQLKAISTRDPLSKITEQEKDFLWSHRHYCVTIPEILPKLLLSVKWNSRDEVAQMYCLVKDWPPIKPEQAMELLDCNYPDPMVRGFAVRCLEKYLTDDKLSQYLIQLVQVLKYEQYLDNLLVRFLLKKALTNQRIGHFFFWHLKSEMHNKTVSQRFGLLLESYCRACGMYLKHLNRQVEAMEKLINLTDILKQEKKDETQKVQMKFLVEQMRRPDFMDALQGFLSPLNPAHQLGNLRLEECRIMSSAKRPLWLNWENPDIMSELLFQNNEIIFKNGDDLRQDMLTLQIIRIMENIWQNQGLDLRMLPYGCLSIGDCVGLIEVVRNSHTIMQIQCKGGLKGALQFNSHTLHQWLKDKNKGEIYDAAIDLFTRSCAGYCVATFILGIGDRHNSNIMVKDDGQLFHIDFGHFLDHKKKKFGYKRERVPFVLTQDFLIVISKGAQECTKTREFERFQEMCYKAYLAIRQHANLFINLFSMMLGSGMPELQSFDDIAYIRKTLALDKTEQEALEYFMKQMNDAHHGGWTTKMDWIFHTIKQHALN

Sequence of PAK3 (human) (O75914 whole entry, looked up): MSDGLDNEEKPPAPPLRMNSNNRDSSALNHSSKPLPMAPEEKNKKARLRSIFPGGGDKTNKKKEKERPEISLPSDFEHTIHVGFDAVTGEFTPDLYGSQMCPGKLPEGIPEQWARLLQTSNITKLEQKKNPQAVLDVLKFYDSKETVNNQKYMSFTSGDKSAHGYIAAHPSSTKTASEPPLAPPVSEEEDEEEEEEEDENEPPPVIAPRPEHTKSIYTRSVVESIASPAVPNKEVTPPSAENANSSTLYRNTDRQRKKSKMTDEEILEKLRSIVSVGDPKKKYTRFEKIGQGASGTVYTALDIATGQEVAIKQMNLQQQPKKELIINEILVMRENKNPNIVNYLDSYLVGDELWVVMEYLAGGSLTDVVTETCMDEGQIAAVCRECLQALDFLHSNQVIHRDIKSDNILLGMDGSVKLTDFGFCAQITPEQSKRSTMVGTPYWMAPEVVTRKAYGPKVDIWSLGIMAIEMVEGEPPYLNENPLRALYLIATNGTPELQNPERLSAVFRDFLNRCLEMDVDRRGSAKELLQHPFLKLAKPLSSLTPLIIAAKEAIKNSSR
Sequence of MYLK (human) (Q15746 whole entry, looked up): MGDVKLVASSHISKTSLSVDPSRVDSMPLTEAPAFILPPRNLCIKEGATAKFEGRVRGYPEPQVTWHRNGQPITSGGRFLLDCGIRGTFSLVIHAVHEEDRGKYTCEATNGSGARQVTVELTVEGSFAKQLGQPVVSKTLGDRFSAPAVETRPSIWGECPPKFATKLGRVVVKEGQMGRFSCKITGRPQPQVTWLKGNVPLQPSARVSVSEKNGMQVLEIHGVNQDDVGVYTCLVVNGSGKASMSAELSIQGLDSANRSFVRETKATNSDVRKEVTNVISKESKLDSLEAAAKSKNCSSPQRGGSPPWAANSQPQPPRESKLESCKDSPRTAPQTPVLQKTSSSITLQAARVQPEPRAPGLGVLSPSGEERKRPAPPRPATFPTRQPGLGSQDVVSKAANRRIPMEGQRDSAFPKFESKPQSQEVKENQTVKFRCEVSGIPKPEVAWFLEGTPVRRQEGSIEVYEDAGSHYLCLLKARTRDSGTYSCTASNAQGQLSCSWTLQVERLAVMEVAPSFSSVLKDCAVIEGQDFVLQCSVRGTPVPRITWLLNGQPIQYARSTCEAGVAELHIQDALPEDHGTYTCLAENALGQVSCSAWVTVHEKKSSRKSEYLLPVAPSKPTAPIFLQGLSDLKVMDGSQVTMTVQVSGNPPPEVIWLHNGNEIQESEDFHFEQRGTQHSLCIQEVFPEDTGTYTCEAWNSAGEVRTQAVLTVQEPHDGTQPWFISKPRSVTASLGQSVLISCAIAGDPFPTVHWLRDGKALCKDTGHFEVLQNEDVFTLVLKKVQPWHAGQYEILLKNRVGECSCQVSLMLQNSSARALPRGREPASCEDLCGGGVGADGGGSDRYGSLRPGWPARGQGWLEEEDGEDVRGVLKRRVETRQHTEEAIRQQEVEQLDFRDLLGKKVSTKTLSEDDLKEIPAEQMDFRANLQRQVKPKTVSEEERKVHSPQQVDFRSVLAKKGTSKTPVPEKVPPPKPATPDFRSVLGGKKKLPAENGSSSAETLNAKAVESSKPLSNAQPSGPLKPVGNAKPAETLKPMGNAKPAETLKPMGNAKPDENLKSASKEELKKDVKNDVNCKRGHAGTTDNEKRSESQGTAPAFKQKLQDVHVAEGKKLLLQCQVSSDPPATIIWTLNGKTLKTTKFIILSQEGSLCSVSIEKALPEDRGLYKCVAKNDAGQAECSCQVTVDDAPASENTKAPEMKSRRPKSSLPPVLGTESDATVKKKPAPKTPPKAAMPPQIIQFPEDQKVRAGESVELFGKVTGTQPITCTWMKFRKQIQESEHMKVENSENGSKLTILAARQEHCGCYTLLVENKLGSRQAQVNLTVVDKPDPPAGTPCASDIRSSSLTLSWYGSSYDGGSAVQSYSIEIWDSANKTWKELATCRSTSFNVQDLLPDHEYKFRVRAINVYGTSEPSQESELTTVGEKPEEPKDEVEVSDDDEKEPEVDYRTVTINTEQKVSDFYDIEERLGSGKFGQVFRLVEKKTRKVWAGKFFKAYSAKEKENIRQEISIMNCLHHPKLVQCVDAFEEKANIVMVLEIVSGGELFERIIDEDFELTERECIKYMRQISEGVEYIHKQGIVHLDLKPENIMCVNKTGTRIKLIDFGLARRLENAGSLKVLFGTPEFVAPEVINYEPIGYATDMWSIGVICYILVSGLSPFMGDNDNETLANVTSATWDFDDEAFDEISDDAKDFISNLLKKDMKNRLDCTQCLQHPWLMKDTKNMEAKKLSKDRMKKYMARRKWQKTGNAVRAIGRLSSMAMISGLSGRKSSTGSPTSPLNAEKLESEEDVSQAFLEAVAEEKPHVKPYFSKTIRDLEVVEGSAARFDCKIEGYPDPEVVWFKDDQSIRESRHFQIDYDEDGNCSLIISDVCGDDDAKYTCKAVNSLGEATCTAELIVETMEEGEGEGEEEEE
Sequence of GRK4 (human) (P32298 whole entry, looked up): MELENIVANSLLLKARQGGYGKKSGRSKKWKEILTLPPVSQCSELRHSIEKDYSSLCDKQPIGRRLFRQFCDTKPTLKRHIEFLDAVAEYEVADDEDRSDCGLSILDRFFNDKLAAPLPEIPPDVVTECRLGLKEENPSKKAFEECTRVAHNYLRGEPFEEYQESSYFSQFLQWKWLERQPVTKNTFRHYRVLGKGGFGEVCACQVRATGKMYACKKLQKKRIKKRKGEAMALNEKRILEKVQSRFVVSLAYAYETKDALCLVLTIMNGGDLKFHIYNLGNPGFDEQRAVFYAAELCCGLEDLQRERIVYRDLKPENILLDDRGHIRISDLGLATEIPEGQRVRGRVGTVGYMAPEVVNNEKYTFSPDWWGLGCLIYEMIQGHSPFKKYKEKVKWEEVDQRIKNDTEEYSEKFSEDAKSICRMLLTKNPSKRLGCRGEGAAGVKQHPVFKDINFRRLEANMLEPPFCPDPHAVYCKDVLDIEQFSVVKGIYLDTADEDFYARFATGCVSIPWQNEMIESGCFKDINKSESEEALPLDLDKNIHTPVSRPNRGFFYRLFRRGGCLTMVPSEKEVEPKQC
Sequence of FGFR4 (human) (P22455 whole entry, looked up): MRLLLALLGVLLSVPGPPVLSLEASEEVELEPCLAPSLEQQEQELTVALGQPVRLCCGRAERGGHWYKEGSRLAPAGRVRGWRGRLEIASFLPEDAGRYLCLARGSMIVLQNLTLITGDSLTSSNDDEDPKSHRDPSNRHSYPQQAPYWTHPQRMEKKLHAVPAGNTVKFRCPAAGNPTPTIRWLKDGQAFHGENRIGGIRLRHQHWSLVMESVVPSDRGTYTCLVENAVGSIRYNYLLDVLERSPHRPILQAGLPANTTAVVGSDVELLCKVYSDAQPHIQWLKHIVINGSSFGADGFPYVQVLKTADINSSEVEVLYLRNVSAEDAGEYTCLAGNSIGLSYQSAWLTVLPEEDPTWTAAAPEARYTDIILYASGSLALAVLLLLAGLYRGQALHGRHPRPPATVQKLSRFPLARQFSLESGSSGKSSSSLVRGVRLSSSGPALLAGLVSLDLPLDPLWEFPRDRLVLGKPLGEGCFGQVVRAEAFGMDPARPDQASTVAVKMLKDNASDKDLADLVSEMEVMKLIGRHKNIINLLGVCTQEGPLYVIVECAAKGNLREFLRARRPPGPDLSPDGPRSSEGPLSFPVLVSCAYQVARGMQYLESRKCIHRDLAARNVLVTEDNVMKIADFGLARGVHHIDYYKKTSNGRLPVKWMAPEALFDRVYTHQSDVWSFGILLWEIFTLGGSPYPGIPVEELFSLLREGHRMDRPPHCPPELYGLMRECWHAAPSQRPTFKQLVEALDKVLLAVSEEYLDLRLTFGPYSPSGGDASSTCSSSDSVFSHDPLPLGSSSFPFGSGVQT
Sequence of PIK3CA (human), P42336 [H1047L] (P42336 whole entry H1047L, looked up): as the sequence (P42336 whole entry E542K, looked up) above, with K542E, H1047L counted along it

| SMILES | kinase still bound, per cent of control [1] [%] | kinase still bound, per cent of control [2] [%] | kinase still bound, per cent of control [3] [%] | kinase still bound, per cent of control [4] [%] | kinase still bound, per cent of control [5] [%] | kinase still bound, per cent of control [6] [%] | kinase still bound, per cent of control [7] [%] | kinase still bound, per cent of control [8] [%] | kinase still bound, per cent of control [9] [%] | kinase still bound, per cent of control [10] [%] | kinase still bound, per cent of control [11] [%] | kinase still bound, per cent of control [12] [%] | kinase still bound, per cent of control [13] [%] | kinase still bound, per cent of control [14] [%] | kinase still bound, per cent of control [15] [%] | kinase still bound, per cent of control [16] [%] | kinase still bound, per cent of control [17] [%] | kinase still bound, per cent of control [18] [%] | kinase still bound, per cent of control [19] [%] | kinase still bound, per cent of control [20] [%] | other results |
| --- | --- | --- | --- | --- | --- | --- | --- | --- | --- | --- | --- | --- | --- | --- | --- | --- | --- | --- | --- | --- | --- |
| N#Cc1cc(-c2ccnc(Nc3ccc(-n4cnc(-c5cccnc5)n4)cc3)n2)cc(N2CCOCC2)c1 | 100 | 88 | 98 | 100 | 65 | 99 | 91 | 100 | 61 | 100 | 100 | 100 | 0 | 78 | 37 | 20 | 100 | 48 | 0.95 | 72 | kinase still bound, per cent of control [21]: 54%; kinase still bound, per cent of control [22]: 0.95%; kinase still bound, per cent of control [23]: 100%; kinase still bound, per cent of control [24]: 100%; kinase still bound, per cent of control [25]: 100%; kinase still bound, per cent of control [26]: 100%; kinase still bound, per cent of control [27]: 56%; kinase still bound, per cent of control [28]: 17%; kinase still bound, per cent of control [29]: 6.3%; kinase still bound, per cent of control [30]: 92%; kinase still bound, per cent of control [31]: 100%; kinase still bound, per cent of control [32]: 72%; kinase still bound, per cent of control [33]: 69%; kinase still bound, per cent of control [34]: 18%; kinase still bound, per cent of control [35]: 7.8%; kinase still bound, per cent of control [36]: 69%; kinase still bound, per cent of control [37]: 58%; kinase still bound, per cent of control [38]: 2.5%; kinase still bound, per cent of control [39]: 100%; kinase still bound, per cent of control [40]: 100% |
| C=CC(=O)Nc1ccc(C(=O)c2sc(Nc3ccc(N4CCN(C)CC4)cc3OC)nc2N)cc1 | 92 | 0.7 | 81 | 26 | 83 | 26 | 61 | 3.8 | 100 | 100 | 87 | 85 | 100 | 100 | 52 | 42 | 95 | 94 | 90 | 91 | kinase still bound, per cent of control [21]: 7.6%; kinase still bound, per cent of control [22]: 65%; kinase still bound, per cent of control [23]: 100%; kinase still bound, per cent of control [24]: 8.6%; kinase still bound, per cent of control [25]: 10%; kinase still bound, per cent of control [26]: 8.4%; kinase still bound, per cent of control [27]: 100%; kinase still bound, per cent of control [28]: 100%; kinase still bound, per cent of control [29]: 60%; kinase still bound, per cent of control [30]: 67%; kinase still bound, per cent of control [31]: 54%; kinase still bound, per cent of control [32]: 100%; kinase still bound, per cent of control [33]: 9.6%; kinase still bound, per cent of control [34]: 73%; kinase still bound, per cent of control [35]: 100%; kinase still bound, per cent of control [36]: 93%; kinase still bound, per cent of control [37]: 80%; kinase still bound, per cent of control [38]: 0.55%; kinase still bound, per cent of control [39]: 100%; kinase still bound, per cent of control [40]: 100% |
| CNC(=O)Nc1ccc(-c2nc(N3CC4CCC(C3)O4)c3cnn(C4CCC5(CC4)OCCO5)c3n2)cc1 | 100 | 84 | 100 | 84 | 100 | 62 | 100 | 100 | 100 | 87 | 92 | 100 | 100 | 85 | 100 | 100 | 90 | 95 | 85 | 100 | kinase still bound, per cent of control [21]: 93%; kinase still bound, per cent of control [22]: 83%; kinase still bound, per cent of control [23]: 99%; kinase still bound, per cent of control [24]: 100%; kinase still bound, per cent of control [25]: 90%; kinase still bound, per cent of control [26]: 42%; kinase still bound, per cent of control [27]: 100%; kinase still bound, per cent of control [28]: 77%; kinase still bound, per cent of control [29]: 94%; kinase still bound, per cent of control [30]: 100%; kinase still bound, per cent of control [31]: 100%; kinase still bound, per cent of control [32]: 83%; kinase still bound, per cent of control [33]: 100%; kinase still bound, per cent of control [34]: 75% and 77%; kinase still bound, per cent of control [35]: 83%; kinase still bound, per cent of control [36]: 100%; kinase still bound, per cent of control [37]: 100%; kinase still bound, per cent of control [38]: 29%; kinase still bound, per cent of control [39]: 15%; kinase still bound, per cent of control [40]: 14% |

Source: the kinase profiling compilation of Christmann-Franck et al. (2016)
